Measurements taken from patent US20260275280A1, “DIRECTED DIFFERENTIATION PROTOCOLS TO DERIVE BONE FIDE SPINAL SENSORY INTERNEURONS” (THE REGENTS OF THE UNIVERSITY OF CALIFORNIA, priority 2022, published 2026).

Columns and labels:
[1] = test system: mESCs-derived NMPs / NPCs; assay: Bulk RNA-Seq differential expression and qRT-PCR after RA or RA+BMP4 treatment; assay type: cell-based, mouse
Method: Bulk-RNA sequencing and data processing: Total cell lysate was obtained in buffer RLT (Qiagen) at different time points from three independent differentiations (biological replicates) conducted parallelly. RNA extraction was performed using RNeasy mini kit (Qiagen) and the quality was determined using Agilent Technologies 2100 Bioanalyzer and only samples with a RIN score >8.0 were sequenced. Stranded libraries were constructed using Universal plus mRNA sequencing kit (NuGEN) and sequenced onto 2 lanes of NovaseqS1 to generate 30 million reads/sample. Obtained reads were aligned to the latest mouse reference genome (mm10) using the STAR spliced read aligner. Pearson correlation and principal component analysis (PCA) was performed to determine the similarities among the samples and replicates. Differentially expressed genes were identified using DESeq and EdgeR package on R platform. The candidate genes were selected using cutoff false discovery rate (FDR <0.05) and log fold change (>2). Differentially expressed gene lists were further subjected to Enrichr, Metascape (Zhou et al., 2019) and DAVID functional annotation tools to identify enriched gene ontology (GO) categories.
Quantitative (a) RT-PCR analysis: RNA was isolated with RNeasy Mini Kit (Qiagen, cat no. 74104), and converted to cDNA using Superscript IV First Strand Synthesis kit (Thermo Fisher Scientific). qRT-PCR was performed using SYBR Green PCR Master Mix (Applied Biosystems) on Roche 480 Lightcycler (Roche). The relative fold expression was calculated using 2-AACt method of comparing the expression of the target gene with that of the housekeeping gene glyceraldehyde 3-phosphate dehydrogenase (Gapdh). All experiments were repeated at least 2-3 times (technical replicates) from at least two independent differentiations (biological replicates), and data is represented as mean±SEM.
We took advantage of the directed differentiation protocols to investigate the unresolved mechanisms by which RA and BMP direct dI fate specification. To further validate the use of a stem cell model, we first assessed the genetic basis of the fate decisions mediated by RA signaling. During the 24 hr pulse of RA at day 3, Pax3 levels gradually increase, while T expression concomitantly declines (FIG. 12A). […] To identify the transcriptional changes occurring during this first commitment step, we performed bulk RNA-Seq at day 3 (NMP state), day 3.25 (early transcriptional response to RA) and day 4 (dP state1) (FIG. 11B).
We hypothesized that the addition of BMP4 to NPCs in dP state1, directs them to a more dorsal dP state, i.e. dP state2 (FIG. 11A). To define the transcriptional changes occurring after BMP4 addition, we performed bulk RNA-Seq at day 4 (dP state1), day 4.25 (early transcriptional response to RA+BMP4) and at day 5 (dP state2) (FIG. 4A). […] 78 genes, out of 411, were common between both time points (FIGS. 4B, 13B). Focusing on these common genes, we identified enriched functional processes using GO analyses. The GO terms included the BMP signaling pathway (FIG. 4C, Table 3), confirming that the analysis identified BMP responsive genes.

mESCs-derived NMPs = assay: 2D directed differentiation of NMPs with RA/BMP4, immunohistochemistry (pSmad1/5/8, Pax3, Pax6, Sox2, Tuj1, Pax2); assay type: cell-based, mouse; conditions: 24 hr pulse of RA at day 3
Method: The mouse ESC line, MM13, was routinely maintained in ES cell media (DMEM+20% FBS) with 100u/ml of mouse leukocyte inducing factor (LIF). […] To prepare cells for the differentiation, ESC colonies were dissociated with 0.25% trypsin and plated on gelatin coated plates at 1:10 dilution to reduce MEF transfer. Cells cultured on gelatin coated plates and allowed to proliferate for 1-2 days. To initiate differentiation, cells were plated on 0.1% gelatin coated 24-well CellBIND dishes (Corning) at 20,000 cells/ml density in 0.5 ml/well N2/B27 medium that contains 10 ng/ml basic fibroblast growth factor (bFGF). The N2/B27 medium contains 1:1 portions of Advanced Dulbecco's modified Eagle Media (DMEM) F12 (Hyclone) and Neurobasal media (Thermo Fisher Scientific) supplemented with 0.5×N2, 1×B27 supplement (with Vitamin A), 2 mM L-glutamine, 0.1 mM 2-mercaptoethanol (ME), and 1% BSA. On day 1, small colonies of cells can be observed attached to the bottom of the wells. On day 2, cells were supplemented with 10 ng/ml bFGF and 5 μM CHIR99021 for 24 hours to induce a neuromesodermal identity (Gouti et al., 2014). On day 3, media was changed as follows: for protocol 1, cells were exposed to 100 nM RA for 48 hrs. […] At the end of the differentiation, the cultures were fixed for immunohistochemical analysis or lysed to obtain RNA for RNA-Seq or quantitative reverse transcriptase PCR analysis. […]

[2] = 6 hrs of RA treatment (day 3.25) vs day 3 NMP state
[3] = 24 hours of RA exposure (day 4) vs day 3

## CC1=C(/C=C/C(C)=C/C=C/C(C)=C/C(=O)O)C(C)(C)CCC1 [RA, retinoic acid]
[1]; [2]
  genes significantly downregulated: 19 genes
  genes significantly upregulated: 138 genes
[1]; [3]
  genes significantly downregulated: 590 genes
  genes significantly upregulated: 389 genes
[1]; 24 hr treatment of 100 nM RA
  genes upregulated compared to day 4 control (no RA treatment): 911 genes
[1]; day 3, day 3.25, day 4 of RA treatment
  genes whose expression levels are altered in total: 979 genes
mESCs-derived NMPs
  Pax3+ cells by day 4: 90-95%
